In patent US20110105389A1 (priority 2009, published 2011):
Each block holds one compound with its values, some of them ahead of it.

Key:
male ob/ob mice = assay: Subchronic oral administration in male ob/ob mice (7, 15 and 28 day protocols), Method B15; type: in vivo, mouse
Excerpt: B15. Effects of Subchronic Administration of Compounds of the Invention in Male ob/ob Mice
The objective of this study is to determine the subchronic effects of test compounds on body weight change, food and water consumption, as well as glucose homeostasis and insulin levels in male ob/ob mice upon oral administration for up to 7 days. The male ob/ob mouse was selected as a type 2 diabetes (T2DM) and genetically defined obesity model which is sensitive to the effect of different insulin sensitizers in acute as well as in chronic settings.
A similar study in this model was conducted to determine the acute and subchronic effects of test compounds on body weight change, food and water consumption, glucose homeostasis, insulin and glucagon levels, as well as lipid profile and brain penetration upon oral administration to the male ob/ob mice for up to 28 days.
Mice were individually housed in rodent cages with soft wood bedding on the bottom and equipped with water bottles. All cages were clearly labeled with a cage card indicating study number, group, animal number and dose level. Each animal was uniquely identified by an animal number marked on their tail with indelible ink. The animal number was designated the day the animals arrive at the animal facility. The animal room environment was controlled (targeted ranges: temperature 22±2° C.; relative humidity 50±10%; light/dark cycle: 12 hours light, 12 hours dark, lights on from 06:00 AM to 06:00 PM). A regular rodent diet (Charles River 5075 rodent chow, Purina Mills, Canada) was provided to the animals ad libitum. Municipal tap water was provided to the animals ad libitum via water bottles. Fresh tap water was provided after water bottle weighing. An acclimation period of approximately 7 days for all groups was allowed between the receipt of animals and the start of treatment to accustom the […] to the laboratory environment. On experimental Day −7, animals were stratified according to body weight and glycemia into an appropriate number of groups of 5 or 10 animals and two groups of 5 animals.
Test compounds were administered, as a solution, orally, at the doses indicated. The dose volume will be 5 mL/kg/day. Groups were dosed once daily around 4:00 p.m. As positive controls, rosiglitazone (Avandia®), an approved anti-diabetic drug of the thiazolidinediones family (ppar gamma agonist) which has been specifically reported to normalize glycemia in the ob/ob mouse model (Liu et al., J. Med. Chem.; 46: 2093-2103, 2003) was used. The CB1 receptor antagonist rimonabant (Accomplia®) was reported to reduce body weight and food intake in different models of Type 2 diabetes and obesity and was also employed (Rasmussen and Huskinson Behavioral Pharmacol. 2008, 19, 735-742,; Bobo, G.; et al. Hepathology 2007, 46, 122-129; Di Marzo; et al., Nature 2001, 410, 822-825).
For, the study animals, the data collected from study Day −7 to Day 8 were reported. Body weights were recorded for all animals on Day −7 prior to initiation of dosing, at the time of group assignment and daily throughout the study period (Day 1-8). Food and water intake was Measured 4 hrs post-dosing, 2 hrs after the beginning of the dark cycle (around 8:00 p.m.) on Day 1 and 7 (Subset A) as well as on Day 2 and 8 (Subset B) and then daily in 24 h intervals from Day 3 through Day 8. On Day 1 (Subset A) and Day 2 (Subset B), blood was sampled from 3 animals/group from Groups 2 through 4 into EDTA coated tubes (K2-EDTA microtainer tubes, Becton Dickinson) from a tail vein (˜100 μL) 4 hrs post-dose for PK analysis. Blood was centrifuged at 4000 rpm for 10 min. at 4° C., and the resulting plasma transferred into non-coated tubes and stored at −80° C. until analysis. The same procedures were repeated on Day 7 (Subset A) and Day 8 (Subset B) 24 hrs post-dose. […]

CYP2D6 = CYP2D6 (Homo sapiens, UniProt P10635); assay: Cytochrome P450 inhibition, Method B6; details: read-out: IC50 CYP 2D6; Table 4a; dextromethorphan used as substrate
Chain of CYP2D6 (P10635 whole entry): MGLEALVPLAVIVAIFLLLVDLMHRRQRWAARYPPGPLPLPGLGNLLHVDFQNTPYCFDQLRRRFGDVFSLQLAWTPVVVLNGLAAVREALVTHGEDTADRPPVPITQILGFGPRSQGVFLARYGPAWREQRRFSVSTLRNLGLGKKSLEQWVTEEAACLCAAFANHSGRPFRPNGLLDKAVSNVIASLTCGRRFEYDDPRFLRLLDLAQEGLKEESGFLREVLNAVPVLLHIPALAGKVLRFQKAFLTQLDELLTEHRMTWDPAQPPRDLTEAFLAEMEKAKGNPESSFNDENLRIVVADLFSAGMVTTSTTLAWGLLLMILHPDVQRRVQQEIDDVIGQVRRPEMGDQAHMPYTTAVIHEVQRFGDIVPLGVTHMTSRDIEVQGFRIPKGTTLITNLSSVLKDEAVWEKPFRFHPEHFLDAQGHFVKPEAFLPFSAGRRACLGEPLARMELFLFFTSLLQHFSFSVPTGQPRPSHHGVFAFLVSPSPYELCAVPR

Caco-2 cells = assay: Caco-2 permeability, Method B7; type: in vitro ADME, human; details: for A to B Mean Papp / B to A Mean Papp: Caco-2, 10 μM, without P-gp inhibitor; for Efflux ratio Papp B2A/Papp A2B: Caco-2, without P-gp inhibitor
Excerpt: B7. Determination of Caco-2 Permeability
The Caco-2 cell line, derived from a human colorectal carcinoma, has become an established in vitro model for the prediction of drug absorption across the human intestine. (Sun, D.; Yu, L. X.; Hussain, M. A.; Wall, D. A.; Smith, R. L.; Amidon, G. L. Curr. Opin. Drug Discov. Devel. 2004, 7, 75-85; Bergstrom, C. A. Basic Clin. Pharmacol. Toxicol. 2005, 96, 156-61; Balimane, P. V.; Han, Y. H.; Chong, S. AAPS J. 2006, 8, E1-13; Shah, P.; Jogani, V.; Bagchi, T.; Misra, A. Biotechnol. Prog. 2006, 22, 186-198.) When cultured on semi-permeable membranes, Caco-2 cells differentiate into a highly functionalized epithelial barrier with remarkable morphological and biochemical similarity to the small intestinal columnar epithelium. Fully differentiated cell monolayers can be used to assess the membrane transport properties of novel compounds.
Assays to determine the permeability of compounds of the invention utilizing Caco-2 cells are commercially available, for example NoAb BioDiscoveries (Mississaugua, ON, Canada) and Absorption Systems (Exton, Pa., USA).
Permeability across the Caco-2 cell layer was determined by growing the cells on a membrane placed between two (donor and acceptor) chambers. Drug candidates are typically added to the apical (A) side of the cell layer and their appearance in the basolateral (B) side is measured over incubation time. Permeability in this direction represents intestinal absorption. Permeability may also be determined from the basolateral to the apical side of the Caco-2 cell. […]
Permeability (10 μM) for compounds of the invention in the apical to basolateral and basolateral to apical direction were tested in duplicate. Samples will be collected from the donor and acceptor chambers at the beginning (0 min) and following 60 min of incubation at 37° C. and stored frozen at −70° C. until bioanalysis. Samples for each test compound generated from the Caco-2 permeability assay were further analyzed by LC-MS-MS. The permeability of [^3H]-mannitol and [^3H]-propranolol were determined in parallel as controls.
The permeability coefficient (Papp) of each compound and radiolabeled standard was determined using the following equation: […]
where dQ/dT represents the permeability rate, Ci denotes the initial concentration in the donor compartment, and A represents the surface area of the filter. Ci is determined from the mean concentration of duplicate samples taken prior to addition to the donor compartment. Permeability rates were calculated by plotting the cumulative amount of compound measured in the acceptor compartment over time and determining the slope of the line by linear regression analysis. The duplicate and mean apical to basolateral and basolateral to apical Papp's were reported for each compound and standard. […]

[1] = vs vehicle control mice, FIG. 13

SMILES: CC(C)[C@@H]1NCCOc2ccccc2C#CCNC(=O)[C@@H](Cc2ccccc2)NC(=O)[C@H](C(C)O)N(C)C1=O (stereo partly drawn) [Compound 1712]
acute cumulative food intake (male ob/ob mice; over a 2 hr period, fasted animals, vs vehicle control, FIG. 11): significantly reduced

IC50 (CYP2D6): 11.8 µM
A to B Mean Papp (Caco-2 cells): 0.274 ×10⁻⁶ cm/s
B to A Mean Papp (Caco-2 cells): 53.5 ×10⁻⁶ cm/s
Efflux ratio Papp B2A/Papp A2B (Caco-2 cells): 195
SMILES: CC(C)[C@@H]1NCC2CCc3cccc(c3O2)CCCNC(=O)[C@@H](Cc2ccccc2)NC(=O)[C@H](C(C)O)N(C)C1=O (stereo partly drawn) [Compound 1777]

IC50 (CYP2D6): 7.7 µM
A to B Mean Papp (Caco-2 cells): 0.142 ×10⁻⁶ cm/s
B to A Mean Papp (Caco-2 cells): 13.4 ×10⁻⁶ cm/s
Efflux ratio Papp B2A/Papp A2B (Caco-2 cells): 95
SMILES: CC(C)[C@@H]1NCCOc2ccccc2C2CCC(C2)NC(=O)[C@@H](Cc2c[nH]c3ccccc23)NC(=O)[C@H](C(C)O)N(C)C1=O (stereo partly drawn) [Compound 1843]

SMILES: CC(C)[C@@H]1NCCOc2ccccc2C2CCC(C2)NC(=O)[C@@H](Cc2ccccc2)NC(=O)[C@H](C(C)O)N(C)C1=O (stereo partly drawn) [Compound 1848]
blood glucose levels during oral glucose tolerance test (male ob/ob mice; 75 mg/kg, vs vehicle control): significant decrease
reduction in cumulative food intake (male ob/ob mice; po, 75 mg/kg, 336 h): 11.9%
insulin sensitivity (male ob/ob mice; treated ob/ob mice): improvement
free fatty acids (FFAs) (male ob/ob mice; [1]): significantly reduced
glucagon (male ob/ob mice; [1]): significantly reduced
insulin (male ob/ob mice; [1]): significantly reduced
non-fasting glucose (male ob/ob mice; [1]): significantly reduced
total cholesterol level significantly reduced (male ob/ob mice; [1]): not
triglycerides level significantly reduced (male ob/ob mice; [1]): not
